Results on 18 compounds are retold here after patent publication US12091405B2, “Substituted pyrazole compounds as indoleamine 2,3-dioxygenase inhibitors” (Merck Sharp & Dohme LLC, priority 2018, dated 2024).

Structures are written as SMILES.

Assay [1] concerns the target T1, IDO1 (Homo sapiens, UniProt P14902). Nature of the assay: IDO1 Cellular Assay in HeLa Cells Stimulated with IFNγ. It counts as cell-based. The settings on record: IFNγ 100 ng/mL, 300 uM L-tryptophan, about 48 hours, fluorescence readout, read-out: IDO1 HELA Cell Assay, IC50.
The target in assay [2] is T1, IDO1. Briefly: IDO1 Human Whole Blood Assay. It counts as cell-based. Set-up: Human whole blood was drawn in sodium heparin coated tubes from healthy internal donors; from tissue; host or cells: human whole blood from healthy donors, stimulated with LPS and IFNγ. The settings on record: LPS and IFNγ 100 ng/mL, overnight (18 h), kynurenine by LC/MS/MS. How it is done:
IDO1 Human Whole Blood Assay
Compounds to be tested were serially diluted in ten 3-fold steps in DMSO starting from 10 mM. 3 μL of compound dilutions or DMSO alone were then dispensed from the dilution plate into a polypropylene 96-well assay plate containing 97 μL of RPMI medium using an Echo 555 acoustic liquid handler (Labcyte). LPS and IFNγ was prepared in RPMI medium to a 10× of final conc. (1000 ng/mL), final concentration is 100 ng/mL.
Human whole blood was drawn in sodium heparin coated tubes from healthy internal donors. 240 μL of blood was transferred to each of the wells of a v-bottom 96 well plate. 30 μL of compound was transferred from intermediate dilution plate, and incubated for 15 min. 30 μL from stimulants was then transferred to blood and mixed thoroughly. Plate was covered with breathable membrane and incubated at 37° C. for overnight (18 h).
On day 2, isotope labeled standard solutions of kynurenine and tryptophan was made in water at 10× concentration and 30 μL was added to the blood at 3 μM final concentration. The assay plates were centrifuged at 300×G for 10 min with no brake to separate plasma from red blood cells. 60 μL of plasma samples was removed without disturbing red blood cells. Plasma was diluted with RPMI in 1:1 ratio and proteins were precipitated out with two volumes of Acetonitrile. The plates were centrifuged at 4000×G for 60 min. 20 μL of supernatant was carefully transferred to a 384 well plate containing 40 μL of 0.1% formic acid in water and analyzed by LC/MS/MS.
LC/MS/MS analyses were performed using Thermo Fisher's LX4-TSQ Quantum Ultra system. This system consists of four Agilent binary high-performance liquid chromatography (HPLC) pumps and a TSQ Quantum Ultra triple quadrupole MS/MS instrument. For each sample, 5 μL were injected onto an Atlantis T3 column (2.1 mm×150 mm, 3 μm particle size) from Waters. The mobile phase gradient pumped at 0.8 mL/min was used to elute the analytes from the column at 25 EC. The elution started at 0% B increasing linearly to 25% B at 6.5 min, holding at 25% for 1 min, re-equilibrating to 10 min. Mobile phase A consisted of 0.1% formic acid in water. Mobile phase B consisted of 0.1% of formic acid in acetonitrile. Data were acquired in positive mode using a HESI interface. The operational parameters for the TSQ Quantum Ultra instrument were a spray voltage of 4000 V, capillary temperature of 380° C., vaporizer temperature 400° C., shealth gas 60 arbitrary units, Aux gas 20 arbitrary units, tube lens 85 and collision gas 1.2 mTorr. SRM chromatograms of kynurenine (Qi: 209.2>Q3:94.0) and internal standard (Qi: 215.3>Q3:98.2) were collected for 90 sec. The peak area was integrated by Xcalibur Quan software. The ratios between the kynurenine generated in the reaction and 2D6-Kynurenine spiked-in internal standard were used to generate percentage inhibition and IC50 values. Compounds were titrated and IC50's were calculated by 4 parameter sigmoidal curve fitting formula.
The biological activity data of selective compounds using the IDO1 human whole blood assay described above are summarized in the table below.

T1 sequence (P14902 whole entry): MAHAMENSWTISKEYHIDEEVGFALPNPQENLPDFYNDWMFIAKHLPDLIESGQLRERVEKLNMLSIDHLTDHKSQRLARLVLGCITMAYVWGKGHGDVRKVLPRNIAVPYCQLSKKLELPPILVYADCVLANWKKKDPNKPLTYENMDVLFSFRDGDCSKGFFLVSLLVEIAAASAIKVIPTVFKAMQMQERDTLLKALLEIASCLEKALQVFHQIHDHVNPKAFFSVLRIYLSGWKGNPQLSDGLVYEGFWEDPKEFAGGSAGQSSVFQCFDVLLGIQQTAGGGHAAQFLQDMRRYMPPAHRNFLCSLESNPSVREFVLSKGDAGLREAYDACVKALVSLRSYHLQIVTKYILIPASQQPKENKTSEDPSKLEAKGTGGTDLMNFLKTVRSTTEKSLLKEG

For the compound `Cc1cccc(C2CCN(C(=O)Cn3nc(C(=O)N4CCC(OCCO)CC4)c4c3CCC4)CC2)c1C` [Example 33, 1-(4-(2,3-dimethylphenyl)piperidin-1-yl)-2-(3-(4-(2-hydroxyethoxy)piperidine-1-carbonyl)-5,6-dihydrocyclopenta[c]pyrazol-1(4H)-yl) ethanone], the half-inhibitory concentration (IC50) in assay [1] is 1.1 nM; in assay [2] it was 30.9 nM.
Consider `Cc1cccc(C2CCN(C(=O)Cn3nc(C(=O)N4CCN(C(=O)CO)CC4)c4c3CCCC4)CC2)c1C` [Example 42, 1-(4-(2,3-dimethylphenyl)piperidin-1-yl)-2-(3-(4-(2-hydroxyacetyl)piperazine-1-carbonyl)-4,5,6,7-tetrahydro-1H-indazol-1-yl)ethanone], for which the IC50 in assay [1] came out at 3.7 nM; in assay [2] it was 304 nM.
For `Cc1c(Cl)cccc1C1CCN(C(=O)Cn2nc(C(=O)N3CCN(C(=O)CO)CC3)c3c2C[C@H]2C[C@@H]32)CC1` [Example 17, 1-(4-(3-chloro-2-methylphenyl)piperidin-1-yl)-2-((3bR,4aR)-3-(4-(2-hydroxyacetyl)piperazine-1-carbonyl)-3b,4,4a,5-tetrahydro-1H-cyclopropa[3,4]cyclopenta[1,2-c]pyrazol-1-yl)ethanone], in that order: 1 nM and 59.6 nM.
As to `Cc1cccc(C2CCN(C(=O)Cn3nc(C(=O)N4CCC(O)(CF)CC4)c4c3CCC4)CC2)c1C` [Example 31, 1-[4-(2,3-dimethylphenyl)-1-piperidyl]-2-[3-[4-(fluoromethyl)-4-hydroxy-piperidine-1-carbonyl]-5,6-dihydro-4H-cyclopenta[c]pyrazol-1-yl]ethanone], the 50% inhibitory concentration (IC50) in assay [1] turned out to be 5.1 nM; in assay [2], 87.6 nM.
Take `Cc1cccc(C2CCN(C(=O)Cn3nc(C(=O)N4CC[C@@H](O)[C@@H](F)C4)c4c3C[C@H]3C[C@@H]43)CC2)c1C` [Example 25, 1-[4-(2,3-dimethylphenyl)piperidin-1-yl]-2-{(3bR,4aR)-3-[(3S,4R)-3-fluoro-4-hydroxypiperidine-1-carbonyl]-3b,4,4a,5-tetrahydro-1H-cyclopropa[3,4]cyclopenta[1,2-c]pyrazol-1-yl}ethan-1-one]: the IC50 was found to be 1.6 nM in assay [1] and 192 nM in assay [2].
In the case of `Cc1cccc(C2CCN(C(=O)Cn3nc(C(=O)N4CC[C@H](O)[C@H](C)C4)c4c3C[C@H]3C[C@@H]43)CC2)c1C` [Example 20, 1-[4-(2,3-dimethylphenyl)piperidin-1-yl]-2-{(3bR,4aR)-3-[(3R,4S)-4-hydroxy-3-methylpiperidine-1-carbonyl]-3b,4,4a,5-tetrahydro-1H-cyclopropa[3,4]cyclopenta[1,2-c]pyrazol-1-yl}ethan-1-one], the IC50 in assay [1] came to 0.9 nM; in assay [2] it was 53.3 nM.
`Cc1c(F)ccc(C2CCN(C(=O)Cn3nc(C(=O)N4C[C@@H](C)O[C@@H](C)C4)c4c3CCC4)CC2)c1C` [Example 172, 2-{3-[(2R,6S)-2,6-dimethylmorpholine-4-carbonyl]-5,6-dihydrocyclopenta[c]pyrazol-1(4H)-yl}-1-[4-(4-fluoro-2,3-dimethylphenyl)piperidin-1-yl]ethan-1-one]: the values for the IC50 in assay [1] and in assay [2] were 1.7 nM and 434 nM, respectively.
For `Cc1cccc(C2CCN(C(=O)Cn3nc(C(=O)N4CC[C@H](O)[C@H](F)C4)c4c3C[C@H]3C[C@@H]43)CC2)c1C` [Example 26, 1-[4-(2,3-dimethylphenyl)piperidin-1-yl]-2-{(3bR,4aR)-3-[(3R,4S)-3-fluoro-4-hydroxypiperidine-1-carbonyl]-3b,4,4a,5-tetrahydro-1H-cyclopropa[3,4]cyclopenta[1,2-c]pyrazol-1-yl}ethan-1-one], in that order: 1.8 nM and 258 nM.
Consider `Cc1cccc(C2CCN(C(=O)Cn3nc(C(=O)N4CC[C@H](O)[C@@H](C)C4)c4c3C[C@H]3C[C@@H]43)CC2)c1C` [Example 21, 1-[4-(2,3-dimethylphenyl)piperidin-1-yl]-2-{(3bR,4aR)-3-[(3S,4S)-4-hydroxy-3-methylpiperidine-1-carbonyl]-3b,4,4a,5-tetrahydro-1H-cyclopropa[3,4]cyclopenta[1,2-c]pyrazol-1-yl}ethan-1-one], for which the IC50 in assay [1] stood at 0.9 nM; in assay [2] it was 328 nM.
Regarding `Cc1cc(C)cc(C2CCN(C(=O)Cn3nc(C(=O)N4C[C@@H](C)O[C@@H](C)C4)c4c3CCC4)CC2)c1` [Example 155, 2-{3-[(2R,6S)-2,6-dimethylmorpholine-4-carbonyl]-5,6-dihydrocyclopenta[c]pyrazol-1(4H)-yl}-1-[4-(3,5-dimethylphenyl)piperidin-1-yl]ethan-1-one], the half-inhibitory concentration (IC50) in assay [1] stood at 143 nM.
On the same count and under the same terms, as for `Cc1cc(F)ccc1C1CCN(C(=O)Cn2nc(C(=O)N3CCO[C@H](CO)C3)c3c2CCC3)CC1` [Example 58, (S)-1-(4-(4-fluoro-2-methylphenyl)piperidin-1-yl)-2-(3-(2-(hydroxymethyl)morpholine-4-carbonyl)-5,6-dihydrocyclopenta[c]pyrazol-1(4H)-yl)ethanone], the figure is 454 nM; as for `COc1ccc(C2CCN(C(=O)Cn3nc(C(=O)N4C[C@@H](C)O[C@@H](C)C4)c4c3CCC4)CC2)c(F)c1` [Example 137, 2-{3-[(2R,6S)-2,6-dimethylmorpholine-4-carbonyl]-5,6-dihydrocyclopenta[c]pyrazol-1(4H)-yl}-1-[4-(2-fluoro-4-methoxyphenyl)piperidin-1-yl] ethan-1-one], 85 nM; as for `Cc1cccc(C2CCN(C(=O)Cn3nc(C(=O)N4CCC(O)CC4)c4c3CCC4)CC2(F)F)c1C` (single isomer, unassigned) [Example 15, 1-(4-(2,3-dimethylphenyl)-3,3-difluoropiperidin-1-yl)-2-(3-(4-hydroxypiperidine-1-carbonyl)-5,6-dihydrocyclopenta[c]pyrazol-1(4H)-yl)ethanone], 11.6 nM.
As to `Cc1cccc(C2(F)CCN(C(=O)Cn3nc(C(=O)N4CCC(OCCO)CC4)c4c3C[C@H]3C[C@@H]43)CC2)c1C` [Example 8, 1-(4-(2,3-dimethylphenyl)-4-fluoropiperidin-1-yl)-2-((3bR,4aR)-3-(4-(2-hydroxyethoxy)piperidine-1-carbonyl)-3b,4,4a,5-tetrahydro-1H-cyclopropa[3,4]cyclopenta[1,2-c]pyrazol-1-yl)ethanone], the 50% inhibitory concentration (IC50) in assay [1] was 1 nM.
For `C[C@@H]1CN(C(=O)c2nn(CC(=O)N3CCC(c4ccccc4F)CC3)c3c2CCC3)C[C@H](C)O1` [Example 145, 2-{3-[(2R,6S)-2,6-dimethylmorpholine-4-carbonyl]-5,6-dihydrocyclopenta[c]pyrazol-1(4H)-yl}-1-[4-(2-fluorophenyl)piperidin-1-yl]ethan-1-one], the 50% inhibitory concentration (IC50) in assay [1] was 106 nM.
For the compound `C[C@@H]1CN(C(=O)c2nn(CC(=O)N3CCC(c4cc(Cl)ccc4F)CC3)c3c2CCC3)C[C@H](C)O1` [Example 166, 1-[4-(5-chloro-2-fluorophenyl)piperidin-1-yl]-2-{3-[(2R,6S)-2,6-dimethylmorpholine-4-carbonyl]-5,6-dihydrocyclopenta[c]pyrazol-1(4H)-yl}ethan-1-one], in assay [1], the IC50 is 261 nM.
As for `C[C@@H]1CN(C(=O)c2nn(CC(=O)N3CCC(c4ccc(F)c(C(F)F)c4)CC3)c3c2CCC3)C[C@H](C)O1` [Example 133, 1-{4-[3-(difluoromethyl)-4-fluorophenyl]piperidin-1-yl}-2-{3-[(2R,6S)-2,6-dimethylmorpholine-4-carbonyl]-5,6-dihydrocyclopenta[c]pyrazol-1(4H)-yl}ethan-1-one], the IC50 in assay [1] was 81.7 nM.
For the compound `Cc1cc(F)ccc1C1CCN(C(=O)Cn2nc(C(=O)N3C[C@@H](C)O[C@@H](C)C3)c3c2CCC3)CC1` [Example 92, 2-{3-[(2R,6S)-2,6-dimethylmorpholine-4-carbonyl]-5,6-dihydrocyclopenta[c]pyrazol-1(4H)-yl}-1-[4-(4-fluoro-2-methylphenyl)piperidin-1-yl]ethan-1-one], the IC50 in assay [1] is 14.4 nM.

One may read the IC50 as the concentration needed to halve the response being measured.
